# Test system: U251 cell line
# Assay: Cell titer glo viability, siRNA combined with temozolamide
# Type: cell-based
# Settings: three days post treatment, combined with 1 mM temozolamide, p<0.0001 vs siRNA alone, P<0.01 vs temozolamide alone
# From the text: siRNA s32836 targeting both the full ZMIZ1 transcript (uc001kaf.2) and the truncated ZMIZ1 transcript (uc001kag.2) was purchased from Life Technologies (Grand Island, N.Y., USA), and two custom designed Stealth siRNAs (referred to as 56 and 62) targeting specifically uc001kag.2 were designed (Life Technologies) for all in vitro assays. The sequence of stealth_56 is Sense: […] (SEQ ID NO:23), Anti-Sense: […] (SEQ ID NO:24), the sequence for stealth_62 is Sense: […] (SEQ ID NO:25), Anti-Sense: […] (SEQ ID NO:26). Appropriate scrambled siRNAs were used as controls. Hyper-expressing plasmids were designed for both the full and the truncated plasmids. Appropriate empty vector was used as control for all in vitro assays described. Cells were transfected using Lipofectamine 2000 and the respective siRNA or plasmid and were treated for 6 h. The media was changed after 6 h and the regular culture media was subsequently used.
# U87 and U251 GBM cell lines were treated with varying doses of temozolamide (Sigma Aldrich, St Louis, Mo.). 1000 cells/well were seeded in a 96 well plate. […] Cells were followed for 3 days, and at the third day, viability was assessed with the cell titer glo assay.
substance,measurement,value
"56 siRNA: custom designed Stealth siRNA targeting specifically uc001kag.2; Sense SEQ ID NO:23, Anti-Sense SEQ ID NO:24 (sense CCGGUGCAACUUCUAGCCUUGUUGU; antisense ACAACAAGGCUAGAAGUUGCACCGG; Stealth siRNA, chemical modification pattern not given here)","viability, combination compared to siRNA alone or temozolamide alone",statistically significant decrease in viability
